The text below walks through data of patent US9073961B2, “Substitution derivatives of N6 -benzyladenosine-5′-monophosphate, methods of preparation thereof, use thereof as medicaments, and therapeutic preparations containing these compounds” (UNIVERZITA PALACKEHO V OLOMOUCI, priority 2010, dated 2015).

Assay [1] relates to Normal human fibroblasts BJ. The assay is described as follows: Calcein AM cytotoxicity assay, BJ. The format is cell-based. Particulars: 72 hours incubation. The source says: (§1) Because toxic compounds negatively influence metabolic processes in cells, many standard cytotoxicity assays are based on measurement of metabolisation rate of various artificial substrates. Resulting product is then quantified e.g. by means of spectrometry. The assays can be easily modified for use in 96-well plates. For evaluation of cytotoxic effect of the novel substituted 9-substituted cytokinin derivatives of this invention, a microtiter assay based on quantification of metabolisation of Calcein AM was used. The assay is widely used in drug screening programs and in chemosensitivity testing. In the living cells, Calcein AM is enzymatically hydrolysed and accumulation of resulting calcein is manifested by green fluorescence.
(§2) In the routine screening the following cell lines have been used: CEM (T-lymphoblastoid leukemia), HL-60 (promyelocytic leukemia), K-562 (human erythroleukemia), MCF-7 (breast carcinoma), HOS (human osteogenic sarcoma), and G-361 (human malignant melanoma). Normal human fibroblasts BJ were used as a control for routine screening of the compounds. The cells were kept in Nunc/Corning 80 cm^2 plastic bottles and grown in cell culture medium (DMEM containing 5 g/l glucose, 2 mM glutamine, 100 U/ml penicilline, 100 μg/ml streptomycine, 10% fetal bovine serum and sodium hydrogencarbonate), the compounds were prepared according to the procedure of the present invention.
(§3) The cell suspensions were prepared and diluted according to the particular cell type and the expected target cell density (2.500-30.000 cells per well based on cell growth characteristics) and pippetted (80 μl) into 96-well plates. Inoculates were allowed a pre-incubation period of 24 hours at 37° C. and 5% CO2 for stabilisation. Tested compound was added in total volume of 20 μl of water at time zero. Usually, test compound was evaluated at six 3-fold dilutions. In routine testing, the highest concentration tested was 166.7 μM. All drug concentrations were tested in triplicates. Incubations of cells with the test compounds lasted for 72 hours at 37° C., in 5% CO2 atmosphere and 100% humidity. At the end of incubation period Calcein AM in PBS was added into final concentration of 1 μg/ml. After another 1 hour of incubation fluorescence (FD) was measured with the Labsystem FIA Reader Fluoroscan Ascent (Microsystems). Tumor cell survival (TCS) was estimated using the following equation: […]=(FDdrug exposed well/FDcontrol well)×100%. The GI50 value, the drug concentration causing 50% reduction of esterase activity, was calculated from the obtained dose response curves (FIG. 1).
(§4) Cytoxicity of novel compounds was tested on panel of cell lines of different histogenetic and species origin (Table 3). […] The effective novel derivatives killed tumour cells in concentrations close to 0.1-50 μM.

In assay [2] the test system is HL-60 (promyelocytic leukemia). The assay is described as follows: Calcein AM cytotoxicity assay, HL60. Format: cell-based, human. Particulars: 72 hours incubation.
Source text: as §1, §2, §3, §4

The test system of assay [3] is K-562 (human erythroleukemia). As to the kind of experiment: Calcein AM cytotoxicity assay, K-562. The format is cell-based. The settings on record: 72 hours incubation.
Source text: as §1, §2, §3, §4

For assay [4], the system named is MCF-7 (breast carcinoma). As to the kind of experiment: Calcein AM cytotoxicity assay, MCF7. Format: cell-based. Particulars: 72 hours incubation.
Source text: as §1, §2, §3, §4

Assay [5] concerns HOS (human osteogenic sarcoma). The assay is described as follows: Calcein AM cytotoxicity assay, HOS. The format is cell-based. The settings on record: 72 hours incubation.
Source text: as §1, §2, §3, §4

Assay [6] deals with CEM (T-lymphoblastoid leukemia). The assay is described as follows: Calcein AM cytotoxicity assay, CEM. The settings on record: 72 hours incubation, Calcein AM. Format: cell-based.
Source text: as §1, §2, §3, §4

Assay [7] deals with cytokinin-dependent tobacco callus Nicotiana tabacum L. cv. Wisconsin 38. As to the kind of experiment: Growth of cytokinin-dependent tobacco callus. Format: cell-based. Particulars: for Activity (%) [10^−5 mol · l^−1 KR = 100%]: at concentration with highest activity, relative to control cytokinin; for Concentration with highest activity: tobacco callus fresh weight after four weeks. The method, then:
Cytokinin effect of newly prepared derivatives was tested using cytokinin-dependent tobacco callus. The cytokinin-dependent tobacco callus Nicotiana tabacum L. cv. Wisconsin 38 was maintained at 25° C. in darkness on modified MS medium, containing per 1 liter: 4 μmol of nicotinic acid, 2.4 μmol of pyridoxine hydrochloride, 1.2 μmol of thiamine, 26.6 μmol of glycine, 1.37 μmol of glutamine, 1.8 μmol of myo-inositol, 30 g of sucrose, 8 g of agar, 5.37 μmol of NAA and 0.5 μmol of the compound tested. Subcultivation was carried out every three weeks. Fourteen days before the bioassay, the callus tissue was transferred to the media without 6-benzylaminopurine. The biological activity was determined from the increase of the fresh callus weight after four weeks of cultivation. Five replicates were prepared for each concentration of the compound tested and the entire test was repeated twice. […] The compounds to be tested were dissolved in dimethylsulfoxide (DMSO) and the solution brought up to 10^−3 M with distilled water. […] The stimulatory activity was calculated from the dose-dependent fresh weight callus growth curves.
From the obtained data, the concentration with the highest activity was selected for each compound tested. Relative activity of the compound at this concentration was calculated (Table 5). […]

A value given as a limit tells only on which side of the number the result lay.

As to `COc1cc(CNc2ncnc3c2ncn3[C@@H]2O[C@H](COP(=O)(O)O)[C@@H](O)[C@H]2O)cc(OC)c1` [Compound 34, 6-(3,5-dimethoxybenzylamino)purine riboside-5′-monophosphate], the GI50 in assay [1] was above 167 µM; in assay [2] it was 18.8 µM; in assay [3] it was above 167 µM; in assay [4], above 167 µM; in assay [5], above 167 µM.

As for `COc1cccc(CNc2ncnc3c2ncn3[C@@H]2O[C@H](COP(=O)(O)O)[C@@H](O)[C@H]2O)c1OC` [Compound 31, 6-(2,3-dimethoxybenzylamino)purine riboside-5′-monophosphate], the GI50 in assay [1] is above 167 µM; in assay [2], 109 µM; in assay [3] it was above 167 µM; in assay [6], above 167 µM; in assay [4], above 167 µM; in assay [5] it was above 167 µM.

In the case of `O=P(O)(O)OC[C@H]1O[C@@H](n2cnc3c(NCc4ccc(Cl)cc4Cl)ncnc32)[C@H](O)[C@@H]1O` [Compound 24, 6-(2,4-dichlorobenzylamino)purine riboside-5′-monophosphate], the GI50 was above 167 µM in assay [1]; 96.3 µM in assay [2]; 85.7 µM in assay [3]; 86.7 µM in assay [6]; 127 µM in assay [4]; above 167 µM in assay [5].

For `O=P(O)(O)OC[C@H]1O[C@@H](n2cnc3c(NCc4cc(F)cc(F)c4)ncnc32)[C@H](O)[C@@H]1O` [Compound 37, 6-(3,5-difluorobenzylamino)purine riboside-5′-monophosphate], the GI50 is above 167 µM in assay [1]; 9.1 µM in assay [2]; above 167 µM in assay [3]; 24.5 µM in assay [6]; above 167 µM in assay [4]; above 167 µM in assay [5]. The “Activity (%) [10^−5 mol · l^−1 KR = 100%]” value (“Activity (%)” for short) in assay [7] was found to be 105 ± 3%. The “Concentration with highest activity” value in assay [7] is 10^−6 mol · l^−1.

Take `COc1ccc(CNc2ncnc3c2ncn3[C@@H]2O[C@H](COP(=O)(O)O)[C@@H](O)[C@H]2O)c(OC)c1` [Compound 32, 6-(2,4-dimethoxybenzylamino)purine riboside-5′-monophosphate]: the GI50 in assay [1] was above 167 µM; in assay [2], 39 µM; in assay [3], above 167 µM; in assay [6] it was above 167 µM; in assay [4], above 167 µM; in assay [5], above 167 µM.

With `O=P(O)(O)OC[C@H]1O[C@@H](n2cnc3c(NCc4ccc(F)c(F)c4F)ncnc32)[C@H](O)[C@@H]1O` [Compound 38, 6-(2,3,4-trifluorobenzylamino)purine riboside-5′-monophosphate], the GI50 in assay [1] was above 167 µM; in assay [2], 13 µM; in assay [3] it was above 167 µM; in assay [6], 58.2 µM; in assay [4] it was above 167 µM; in assay [5], above 167 µM.

As to `O=P(O)(O)OC[C@H]1O[C@@H](n2cnc3c(NCc4c(F)ccc(F)c4F)ncnc32)[C@H](O)[C@@H]1O` [Compound 40, 6-(2,3,6-trifluorobenzylamino)purine riboside-5′-monophosphate], the GI50 was above 167 µM in assay [1]; 13 µM in assay [2]; above 167 µM in assay [3]; above 167 µM in assay [4]; above 167 µM in assay [5].

Turning to `COc1ccc(CNc2ncnc3c2ncn3[C@@H]2O[C@H](COP(=O)(O)O)[C@@H](O)[C@H]2O)cc1O` [Compound 30, 6-(3-hydroxy-4-methoxybenzylamino)purine riboside-5′-monophosphate], the GI50 is above 167 µM in assay [1]; 68.9 µM in assay [2]; above 167 µM in assay [3]; 79.3 µM in assay [6]; above 167 µM in assay [4]; above 167 µM in assay [5].

Turning to `O=P(O)(O)OC[C@H]1O[C@@H](n2cnc3c(NCc4cc(F)c(F)cc4F)ncnc32)[C@H](O)[C@@H]1O` [Compound 39, 6-(2,4,5-trifluorobenzylamino)purine riboside-5′-monophosphate], in assay [7], the “Activity (%)” value is listed as 105 ± 3% and the “Concentration with highest activity” value was 10^−5 mol · l^−1.

Consider `O=P(O)(O)OC[C@H]1O[C@@H](n2cnc3c(NCc4ccc(Cl)c(Cl)c4)ncnc32)[C@H](O)[C@@H]1O` [Compound 25, 6-(3,4-dichlorobenzylamino)purine riboside-5-monophosphate], for which the GI50 in assay [1] was above 167 µM; in assay [2] it was 1.1 µM; in assay [3] it was 6.5 µM; in assay [6] it was 3 µM; in assay [4] it was 88.8 µM; in assay [5], above 167 µM.

As to `O=P(O)(O)OC[C@H]1O[C@@H](n2cnc3c(NCc4ccc(F)cc4F)ncnc32)[C@H](O)[C@@H]1O` [Compound 36, 6-(2,4-difluorobenzylamino)purine riboside-5-monophosphate], the GI50 in assay [1] was above 167 µM; in assay [2] it was 3.4 µM; in assay [3] it was 7.4 µM; in assay [6], 7.1 µM; in assay [4] it was above 167 µM; in assay [5], above 167 µM.

In the case of `O=P(O)(O)OC[C@H]1O[C@@H](n2cnc3c(NCc4cccc(Br)c4)ncnc32)[C@H](O)[C@@H]1O` [Compound 8, 6-(3-bromoobenzylamino)purine riboside-5′-monophosphate], the GI50 in assay [1] is above 167 µM; in assay [2], 8 µM; in assay [3], 19.7 µM; in assay [6], 5 µM; in assay [4], above 167 µM; in assay [5] it was above 167 µM. For the same compound, the “Activity (%)” value in assay [7] came out at 102 ± 11%. Moreover, in assay [7], the “Concentration with highest activity” value is on record as 10^−6 mol · l^−1.

In the case of `O=P(O)(O)OC[C@H]1O[C@@H](n2cnc3c(NCc4ccc(F)c(Cl)c4)ncnc32)[C@H](O)[C@@H]1O` [Compound 41, 6-(3-chloro-4-fluorobenzylamino)purine riboside-5′-monophosphate], the GI50 is above 167 µM in assay [1]; 3.5 µM in assay [2]; 4.1 µM in assay [3]; 3.4 µM in assay [6]; above 167 µM in assay [4]; above 167 µM in assay [5]. The “Activity (%)” value in assay [7] worked out at 107 ± 4%. Besides, the “Concentration with highest activity” value in assay [7] is on record as 10^−6 mol · l^−1.

On to `O=P(O)(O)OC[C@H]1O[C@@H](n2cnc3c(NCc4ccc(F)cc4Cl)ncnc32)[C@H](O)[C@@H]1O` [2-chloro-4-fluorobenzylamino, 6-(2-chloro-4-fluorobenzylamino)purine riboside-5′-monophosphate], for which the GI50 in assay [1] is above 167 µM; in assay [2] it was 9 µM; in assay [3], 11.7 µM; in assay [6] it was 20.9 µM; in assay [4] it was above 167 µM; in assay [5], above 167 µM. In assay [7], the “Activity (%)” value is recorded as 108 ± 4%. For the same compound, the “Concentration with highest activity” value in assay [7] is 10^−5 mol · l^−1.

Turning to `O=P(O)(O)OC[C@H]1O[C@@H](n2cnc3c(NCc4ccc(Br)cc4)ncnc32)[C@H](O)[C@@H]1O` [Compound 9, 6-(4-bromobenzylamino)purine riboside-5′-monophosphate], the GI50 in assay [1] is above 167 µM; in assay [2], 47.7 µM; in assay [3] it was 68.2 µM; in assay [6], 20.6 µM; in assay [4], above 167 µM; in assay [5], above 167 µM.

By GI50 is commonly meant the concentration at which growth is held to half of that of the control.
